These results are taken from PubChem BioAssay (NCI).

Some test systems named below: EKVX NSCLC; SNB-75 CNS; COLO 205 colon; RXF 393 renal; NCI/ADR-RES ovarian; HOP-92 NSCLC; MDA-MB-435; NCI-H522 lung; LOX IMVI melanoma; SK-MEL-2 melanoma.
Common to all, as to assay: growth of human tumour cells (NCI), 48 h

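Grown in 96-well plates, cells were treated for 48 hours with each compound at five concentrations. Insufficient inhibition: endpoint recorded as highest concentration tested. GI50 marks 50% less growth. TGI denotes the concentration required for complete inhibition of growth.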

In the case of `COc1cc2ncn(-c3cc(OCc4ccccc4C(F)(F)F)c(C(=O)N(C)C)s3)c2cc1OC`, the GI50 with EKVX NSCLC is greater than 25 µM; with SNB-75 CNS, greater than 18.6 µM; in the assay with COLO 205 colon, greater than 16.8 µM; with RXF 393 renal, 8.53 µM; in the assay on NCI/ADR-RES ovarian, greater than 17 µM; in the assay on HOP-92 NSCLC, 6.66 µM. Moreover, the GI50 is greater than 25 µM in the assay with MDA-MB-435, 17.3 µM with NCI-H522 lung, greater than 25 µM in the assay on LOX IMVI melanoma and greater than 20.2 µM with SK-MEL-2 melanoma. In addition, the TGI with EKVX NSCLC was greater than 25 µM; in the assay with SNB-75 CNS, greater than 25 µM; in the assay on COLO 205 colon, greater than 25 µM; in the assay with RXF 393 renal, greater than 18.7 µM; with NCI/ADR-RES ovarian it was greater than 25 µM; in the assay with HOP-92 NSCLC it was greater than 23.9 µM. Also, the TGI in the assay with MDA-MB-435, in the assay with NCI-H522 lung, in the assay with LOX IMVI melanoma and in the assay on SK-MEL-2 melanoma was greater than 25 µM each time.
On to `CN(CCCCCl)P(=O)(OCCS(=O)(=O)CC(NC(=O)CCC(N)C(=O)O)C(=O)NC(C(=O)O)c1ccccc1)OCC1OC(n2ccc(N)nc2=O)C(F)(F)C1O` (stereo not given), for which the GI50 with EKVX NSCLC was 11.4 µM; in the assay on SNB-75 CNS, 0.825 µM; in the assay with COLO 205 colon, 0.912 µM; with RXF 393 renal, 0.744 µM; in the assay with NCI/ADR-RES ovarian, 0.0664 µM; with HOP-92 NSCLC it was 0.379 µM. Moreover, the GI50 with MDA-MB-435 was 0.178 µM; in the assay on NCI-H522 lung it was 3.79 µM; in the assay on LOX IMVI melanoma it was 0.467 µM; in the assay on SK-MEL-2 melanoma, greater than 63.7 µM. Besides, the TGI in the assay with EKVX NSCLC was greater than 100 µM; in the assay on SNB-75 CNS, greater than 25.2 µM; in the assay on COLO 205 colon, greater than 100 µM; in the assay with RXF 393 renal, greater than 45.1 µM; in the assay on NCI/ADR-RES ovarian it was greater than 62.8 µM; in the assay on HOP-92 NSCLC, 8.63 µM. Also, the TGI in the assay on MDA-MB-435, in the assay on NCI-H522 lung, in the assay on LOX IMVI melanoma and with SK-MEL-2 melanoma was greater than 100 µM in each case.
For the compound `COC(=O)C1C(O)CCC2CN3CCc4c([nH]c5ccccc45)C3CC21` (stereo not given), the TGI in the assay with EKVX NSCLC, in the assay with SNB-75 CNS, in the assay with COLO 205 colon, in the assay on RXF 393 renal, in the assay on NCI/ADR-RES ovarian and with HOP-92 NSCLC was greater than 100 µM each time. Also, the TGI with MDA-MB-435, in the assay with NCI-H522 lung, with LOX IMVI melanoma and in the assay on SK-MEL-2 melanoma was greater than 100 µM throughout.
Take `C[C@@H]1C[C@H](C)CN(S(=O)(=O)c2ccc3c(NO)c4ccc(S(=O)(=O)N5C[C@H](C)C[C@H](C)C5)cc4c(N=O)c3c2)C1`: the GI50 in the assay on EKVX NSCLC was 0.128 µM; in the assay on SNB-75 CNS, 0.123 µM; in the assay with COLO 205 colon, 0.172 µM; in the assay on RXF 393 renal, 0.158 µM; in the assay with NCI/ADR-RES ovarian, 0.302 µM; in the assay on HOP-92 NSCLC it was 0.167 µM. Moreover, the GI50 was 0.181 µM in the assay with MDA-MB-435, 0.181 µM in the assay with NCI-H522 lung, 0.105 µM in the assay with LOX IMVI melanoma and 0.194 µM with SK-MEL-2 melanoma. For the same compound, the TGI was 0.269 µM in the assay on EKVX NSCLC; 0.255 µM in the assay with SNB-75 CNS; 0.342 µM with COLO 205 colon; 0.299 µM in the assay on RXF 393 renal; greater than 1 µM with NCI/ADR-RES ovarian; 0.522 µM with HOP-92 NSCLC. Moreover, the TGI with MDA-MB-435 is 0.397 µM; with NCI-H522 lung, 0.36 µM; in the assay on LOX IMVI melanoma, 0.242 µM; in the assay on SK-MEL-2 melanoma, 0.403 µM.
As to `COc1cc2c(c(OC)c1OC)-c1ncc3c(OC)c(OC)c(OC)cc3c1C2`, the GI50 is 32.7 µM in the assay on EKVX NSCLC; greater than 100 µM with SNB-75 CNS; 19.9 µM in the assay on COLO 205 colon; 25.2 µM in the assay on RXF 393 renal; 15.6 µM in the assay on NCI/ADR-RES ovarian; 52.1 µM with HOP-92 NSCLC. Besides, the GI50 in the assay on MDA-MB-435 was 23 µM; with NCI-H522 lung, 19.3 µM; in the assay with LOX IMVI melanoma, 16.2 µM; with SK-MEL-2 melanoma, 30.8 µM. For the same compound, the TGI in the assay with EKVX NSCLC was greater than 100 µM; in the assay on SNB-75 CNS it was greater than 100 µM; with COLO 205 colon, 38.2 µM; in the assay on RXF 393 renal, 83.2 µM; in the assay on NCI/ADR-RES ovarian it was 38 µM; with HOP-92 NSCLC, greater than 100 µM. The TGI in the assay with MDA-MB-435 was 73.5 µM; in the assay on NCI-H522 lung, 48.3 µM; with LOX IMVI melanoma, 32.3 µM; in the assay with SK-MEL-2 melanoma, 74.4 µM.
In the case of `CC[C@H](Nc1ncnc2nc[nH]c12)c1nc2cccc(F)c2c(=O)n1-c1ccccc1`, the GI50 in the assay with EKVX NSCLC was 41.5 µM; in the assay on SNB-75 CNS it was 0.715 µM; with COLO 205 colon, 72.8 µM; with RXF 393 renal it was 1.35 µM; in the assay with NCI/ADR-RES ovarian it was 86.8 µM; in the assay on HOP-92 NSCLC, 4.86 µM. For the same compound, the GI50 in the assay with MDA-MB-435 is 19.1 µM; with NCI-H522 lung it was 28.8 µM; in the assay on LOX IMVI melanoma, 28 µM; in the assay with SK-MEL-2 melanoma, 48.4 µM. Also, the TGI with EKVX NSCLC is greater than 100 µM; in the assay with SNB-75 CNS, 16.6 µM; in the assay with COLO 205 colon it was greater than 100 µM; with RXF 393 renal, 17.4 µM; with NCI/ADR-RES ovarian, greater than 100 µM; in the assay with HOP-92 NSCLC it was greater than 60.4 µM. The TGI is greater than 74.6 µM in the assay on MDA-MB-435, greater than 100 µM in the assay on NCI-H522 lung, greater than 100 µM in the assay on LOX IMVI melanoma and greater than 100 µM with SK-MEL-2 melanoma.
In the case of `FC(F)(c1ccc2ncccc2c1)c1nnc2ccc(-c3ccncc3)nn12`, the GI50 was 21.4 µM in the assay with EKVX NSCLC; 19 µM in the assay on SNB-75 CNS; 91.1 µM in the assay with COLO 205 colon; 16.4 µM in the assay with RXF 393 renal; 64.3 µM with NCI/ADR-RES ovarian; 18.3 µM in the assay on HOP-92 NSCLC. The GI50 in the assay on MDA-MB-435 was greater than 100 µM; with NCI-H522 lung, greater than 100 µM; in the assay on LOX IMVI melanoma, 49.6 µM; in the assay with SK-MEL-2 melanoma it was greater than 100 µM. Also, the TGI is greater than 100 µM in the assay with EKVX NSCLC; greater than 100 µM in the assay on SNB-75 CNS; greater than 100 µM in the assay on COLO 205 colon; 83.8 µM in the assay on RXF 393 renal; greater than 100 µM in the assay on NCI/ADR-RES ovarian; greater than 100 µM in the assay on HOP-92 NSCLC. In addition, the TGI in the assay on MDA-MB-435, with NCI-H522 lung, with LOX IMVI melanoma and in the assay on SK-MEL-2 melanoma was greater than 100 µM each time.
